The values that follow come from patent publication US9561201B2, “Therapeutic compounds” (Fibrotech Therapeutics Pty Ltd, priority 2006, dated 2017).

In data set [1] the test system is rat mesangial cell line. In words: TGF-β stimulated 3H-proline incorporation in mesangial cells (Example 5). Format: cell-based. The settings on record: for Collagen synthesis: inhibition ranked against tranilast (T) or FT11. The protocol:
(§1) A well-characterized cloned rat mesangial cell line (gift of D Nikolic-Patterson) is cultured in DMEM with FBS, 100 U/mL penicillin, and 100 ug/mL streptomycin in a humidified 5% CO2 atmosphere at 37° C. Cells are plated into 24-well culture dishes in DMEM/10% FBS at low density and allowed to adhere overnight. Cells are used between passages 20 and 40. The subconfluent cells are starved overnight in DMEM/0.1% FBS containing 150 uM L-ascorbic acid, prior to 4 hours of pre-treatment with or without tranilast or the FT compounds, followed by the addition of 5 ng/mL rhTGF-β11 (R&D Systems) and 1 uCi/mL of L-(2,3,4,5-^3H)-proline. Control wells have the compounds but no TGF-β1 added. Cells are incubated for a further 44 hours during which time their appearance is visually monitored. The cells are then washed three times in ice-cold PBS, twice in ice cold 10% TCA and solubilized in 750 uL 1M NaOH for 45 minutes at 37° C. or overnight at 4° C. A 500 uL aliquot is neutralized with 500 uL 1M HCl and 10 mL scintillation fluid (Instagel Plus-Perkin-Elmer) added. Counts are performed on a beta counter.
To normalize the proline incorporation counts to take into account the proliferative effects of TGF-β1, a BioRad protein assay is performed on a 100-150 uL aliquot of the remaining solubilized cells. The sample is neutralized with an equal amount of 1M HCl prior to the assay. The BSA standards used to construct the standard curve have the same amount of 1M NaOH and 1M HCl added as is present in the samples for assay.
Proline incorporation is expressed as cpm/ug protein. In order to compare inter-assay results, the incorporation is expressed as percentage reduction of TGF stimulated proline incorporation, where TGF alone gives 0% reduction and the zero control gives 100% reduction.

In data set [2] the test system is rat mesangial cell line. In words: Effect on mesangial cell appearance (visual monitoring during proline assay). Format: cell-based. On the procedure:
as §1
Compounds in Bold have Minimal Effect on Cell Appearance and Viability

Setting [3] is: Rattus norvegicus, Mesangial cell, 5 ng/mL TGF-β1, 44 h, read-out: Mesangial Cell Assay TGF-β % reduction of TGF-β stimulation_proline inc.

The structures appear in SMILES notation. Where only a bound is given, the exact number is not on record here.

For the compound `O=C(/C=C/c1ccccc1)Nc1ccccc1C(=O)O` [Analogue 2, (E)-2-[(1-Oxo-3-phenyl-2-propenyl)amino]benzoic acid], the melting point (commonly the temperature, or range, at which the solid turns liquid) was in the range of 188 to 189 °C. Moreover, the Collagen synthesis result with rat mesangial cell line [1] is given as “<<T”.

Compound `COc1cccc(/C=C/C(=O)Nc2ccccc2C(=O)O)c1` [Analogue 4, (E)-2-[[3-(3-Methoxyphenyl)-1-oxo-2-propenyl]amino]benzoic acid] gave a melting point of 183 to 184 °C. Besides, in the data set with rat mesangial cell line [1], the Collagen synthesis result is “<<T”.

`O=C(/C=C/c1ccc(O)c(O)c1)Nc1ccccc1C(=O)O` [Analogue 5, (E)-2-[[3-(3,4-Dihydroxyphenyl)-1-oxo-2-propenyl]amino]benzoic acid] yielded a melting point of 204 to 206 °C. In addition, in the data set with rat mesangial cell line [1], the Collagen synthesis result is “May be toxic”. In addition, in the data set with rat mesangial cell line [2] (no concentration stated), the “Effect on mesangial cell appearance” value is “Cells looking”.

The compound `COc1cc(/C=C/C(=O)Nc2ccccc2C(=O)O)ccc1O` [Analogue 6, (E)-2-[[3-(4-Hydroxy-3-methoxyphenyl)-1-oxo-2-propenyl]amino]benzoic acid] returned a melting point of 207.5 to 208.5 °C. Further, in the data set on rat mesangial cell line [1] (setting [3]), the inhibition at 10 µM is 20% and the inhibition at 50 µM was determined as 45%. Also, the Collagen synthesis result with rat mesangial cell line [1] is “<=T”.

With `COc1ccc(/C=C/C(=O)Nc2ccccc2C(=O)O)cc1O` [Analogue 7, (E)-2-[[3-(3-Hydroxy-4-methoxyphenyl)-1-oxo-2-propenyl]amino]benzoic acid], the melting point lay within 215 to 216 °C. Besides, in the data set on rat mesangial cell line [1] (setting [3]), the inhibition at 10 µM was ~50% and the inhibition at 50 µM was determined as 80%. Besides, the Collagen synthesis entry with rat mesangial cell line [1] is recorded as “> or =T”. In the data set on rat mesangial cell line [2] (no concentration stated), the “Effect on mesangial cell appearance” value was “stressed”.

`COc1ccc(/C=C/C(=O)Nc2cc3ccccc3cc2C(=O)O)cc1OC` [Analogue 8, (E)-3-[[3-(3,4-Dimethoxyphenyl)-1-oxo-2-propenyl]amino]-2-naphthoic acid] showed a melting point of 212 to 213 °C. The Collagen synthesis result in the data set on rat mesangial cell line [1] is “Toxic”. Besides, in the data set with rat mesangial cell line [2] (no concentration stated), the “Effect on mesangial cell appearance” value is “Heavily”.

In turn, `COc1ccc(/C=C/C(=O)Nc2cc(OC)c(OC)cc2C(=O)O)cc1OC` [Analogue 9, (E)-2-[[3-(3,4-Dimethoxyphenyl)-1-oxo-2-propenyl]amino]-4,5-dimethoxybenzoic acid] gave a melting point of 236 to 239 °C. Further, in the data set with rat mesangial cell line [1], the Collagen synthesis entry was “<<T”.

`COc1ccc(CCC(=O)Nc2ccccc2C(=O)O)cc1OC` [Analogue 10, 2-[[3-(3,4-Dimethoxyphenyl)-1-oxopropyl]amino]benzoic acid]: the melting point worked out at 137 °C. The Collagen synthesis result with rat mesangial cell line [1] was “<<T”.

Regarding `CCC#CCOc1ccc(/C=C/C(=O)Nc2ccccc2C(=O)O)cc1OC` [Analogue 18, (E)-2-[[3-(3-Methoxy-4-(pent-2-ynyloxy)phenyl)-1-oxo-2-propenyl]amino]benzoic acid], the melting point lay in the range of 185.5 to 186.5 °C. Further, in the data set on rat mesangial cell line [1] (setting [3]), the inhibition at 3 µM was ~55% and the inhibition at 10 µM was ~70%. Besides, the Collagen synthesis entry with rat mesangial cell line [1] was “>>FT11”. In addition, the “Effect on mesangial cell appearance” value with rat mesangial cell line [2] (@ 30 μM) is “lifting off”.

As to `CC#CCOc1cc(/C=C/C(=O)Nc2ccccc2C(=O)O)ccc1OC` [Analogue 23, (E)-2-{[3-(3-(But-2-ynyloxy)-4-methoxyphenyl)-1-oxo-2-propenyl]amino}benzoic acid], the melting point fell in the range of 170 to 171 °C. Also, in the data set with rat mesangial cell line [1] (setting [3]), the inhibition at 3 µM was ~12%, the inhibition at 10 µM fell in the range of 30 to 60% and the inhibition at 30 µM lay within 70 to 80%. In addition, the inhibition at 100 µM with rat mesangial cell line [1] (Rattus norvegicus, Mesangial cell, @ 100 μM, 5 ng/mL TGF-β1, 44 h, read-out: Mesangial Cell Assay TGF-β % reduction of TGF-β stimulation_proline inc.) is ~80%. Moreover, in the data set on rat mesangial cell line [1], the Collagen synthesis result is “>=FT11”. Also, the “Effect on mesangial cell appearance” value with rat mesangial cell line [2] (@ 100 μM) is recorded as “stress @”.

Regarding `C#CCCOc1ccc(/C=C/C(=O)Nc2ccccc2C(=O)O)cc1OC` [Analogue 37, (E)-2-[[3-(4-(But-3-ynyloxy)-3-methoxyphenyl)-1-oxo-2-propenyl]amino]benzoic acid], the melting point fell in the range of 178 to 180 °C. In the data set with rat mesangial cell line [1] (setting [3]), the inhibition at 10 µM was ~50% and the inhibition at 30 µM turned out to be 70%. In addition, in the data set with rat mesangial cell line [1], the Collagen synthesis result is recorded as “=FT11”. For the same compound, the “Effect on mesangial cell appearance” value in the data set on rat mesangial cell line [2] (@ 100 μM) is “Some death”.

Regarding `C#CCCOc1cc(/C=C/C(=O)Nc2ccccc2C(=O)O)ccc1OC` [Analogue 38, (E)-2-[[3-(3-(But-3-ynyloxy)-4-methoxyphenyl)-1-oxo-2-propenyl]amino]benzoic acid], the melting point lay within 197 to 198 °C. Also, in the data set with rat mesangial cell line [1] (setting [3]), the inhibition at 10 µM is ~40% and the inhibition at 30 µM came out at 65%. Also, the Collagen synthesis result in the data set with rat mesangial cell line [1] is recorded as “=FT11”. Also, in the data set on rat mesangial cell line [2] (@ 100 μM), the “Effect on mesangial cell appearance” value is given as “Some death”.

In the case of `CCC#CCCOc1ccc(/C=C/C(=O)Nc2ccccc2C(=O)O)cc1OC` [Analogue 39, (E)-2-[[3-(4-(Hex-3-ynyloxy)-3-methoxyphenyl)-1-oxo-2-propenyl]amino]benzoic acid], the melting point was in the range of 165 to 166 °C. Also, in the data set on rat mesangial cell line [1] (setting [3]), the inhibition at 10 µM was ~70% and the inhibition at 30 µM turned out to be 100%. Also, in the data set with rat mesangial cell line [1], the Collagen synthesis result was “>FT11”. The “Effect on mesangial cell appearance” value with rat mesangial cell line [2] (@ 30 μM) was “Looking bad”.

On to `CCC#CCCOc1cc(/C=C/C(=O)Nc2ccccc2C(=O)O)ccc1OC` [Analogue 40, (E)-2-[[3-(3-(Hex-3-ynyloxy)-4-methoxyphenyl)-1-oxo-2-propenyl]amino]benzoic acid], for which the melting point was 163 to 165 °C. Also, in the data set on rat mesangial cell line [1] (setting [3]), the inhibition at 10 µM was ~70% and the inhibition at 30 µM was found to be 100%. In addition, in the data set on rat mesangial cell line [1], the Collagen synthesis result is “>FT11”. Further, the “Effect on mesangial cell appearance” value in the data set on rat mesangial cell line [2] (@ 100 μM) was “dead”.

As to `CCCCC#CCCOc1ccc(/C=C/C(=O)Nc2ccccc2C(=O)O)cc1OC` [Analogue 41, (E)-2-[[3-(3-Methoxy-4-(oct-3-ynyloxy)phenyl)-1-oxo-2-propenyl]amino]benzoic acid], the melting point was 169 to 170 °C. Also, in the data set on rat mesangial cell line [1], the Collagen synthesis result is “Toxic”. In addition, the “Effect on mesangial cell appearance” value with rat mesangial cell line [2] (@ all concentrations) is given as “Cells damaged @”.

On to `COc1cc(/C=C/C(=O)Nc2ccccc2C(=O)O)ccc1OCc1ccccc1` [Analogue 43, (E)-2-[[3-(4-Benzyloxy-3-methoxyphenyl)-1-oxo-2-propenyl]amino]benzoic acid], for which, in the data set on rat mesangial cell line [1] (setting [3]), the inhibition at 10 µM amounted to 48%. In addition, in the data set with rat mesangial cell line [1] (setting [3]), the inhibition at 30 µM came out at 70%. The “Effect on mesangial cell appearance” value in the data set on rat mesangial cell line [2] (@ 30 μM) and in the data set with rat mesangial cell line [2] (@ 100 μM) was “Sick @” each time.

In the case of `COc1cc(/C=C/C(=O)Nc2ccccc2C(=O)O)ccc1OCc1ccc2ccccc2c1` [Analogue 44, (E)-2-[[3-(3-Methoxy-4-(naphth-2-ylmethoxy)phenyl)-1-oxo-2-propenyl]amino]benzoic acid], the Collagen synthesis result in the data set with rat mesangial cell line [1] is given as “Toxic”. In the data set with rat mesangial cell line [2] (@ all concentrations), the “Effect on mesangial cell appearance” value is listed as “Cells damaged @”.

For `COc1ccc(/C=C/C(=O)Nc2ccccc2C(=O)O)cn1` [Analogue 46, (E)-2-[[3-(6-Methoxypyridin-3-yl)-1-oxo-2-propenyl]amino]benzoic acid], the melting point is 209 to 211 °C. In addition, in the data set on rat mesangial cell line [1], the Collagen synthesis result is listed as “<<FT11”.

For the compound `COc1cc(/C=C/C(=O)Nc2ccccc2C(=O)O)ccc1OCC(=O)C12CC3CC(CC(C3)C1)C2` [Analogue 47], the melting point fell in the range of 112 to 114 °C.

With `COc1cc(/C=C/C(=O)Nc2ccccc2C(=O)O)ccc1OCCN1CCOCC1` [Analogue 48, (E)-2-[[3-(3-Methoxy-4-(2-morpholinoethoxy)phenyl)-1-oxo-2-propenyl]amino]benzoic acid], the melting point is 195 to 201 °C.

As to `COc1cc(/C=C/C(=O)Nc2ccccc2C(=O)O)ccc1OCc1cccnc1` [Analogue 49, (E)-2-[[3-(3-Methoxy-4-(pyridin-3-ylmethoxy)phenyl)-1-oxo-2-propenyl]amino]benzoic acid], the melting point is 245 to 251 °C.

In turn, `COc1ccc(/C=C/C(=O)Nc2ccccc2C(=O)O)cc1OCc1c(C)noc1C` [Analogue 50, (E)-2-[[3-((3-(3,5-Dimethylisoxazol-4-yl)methoxy)-4-methoxyphenyl)-1-oxo-2-propenyl]amino]benzoic acid] registered a melting point of 227 to 229 °C.

Consider `CCN(CC)Cc1cc(/C=C/C(=O)Nc2ccccc2C(=O)O)ccc1OC` [Analogue 51, (E)-2-[[3-(3-((Diethylamino)methyl)-4-methoxyphenyl)-1-oxo-2-propenyl]amino]benzoic acid], for which the melting point lay in the range of 202 to 205 °C.
